Molecules are shown by their SMILES. pIC50: −log10 of the molar value.

Sequence of B-Raf (V600E)-kinase (P15056 whole entry V600E): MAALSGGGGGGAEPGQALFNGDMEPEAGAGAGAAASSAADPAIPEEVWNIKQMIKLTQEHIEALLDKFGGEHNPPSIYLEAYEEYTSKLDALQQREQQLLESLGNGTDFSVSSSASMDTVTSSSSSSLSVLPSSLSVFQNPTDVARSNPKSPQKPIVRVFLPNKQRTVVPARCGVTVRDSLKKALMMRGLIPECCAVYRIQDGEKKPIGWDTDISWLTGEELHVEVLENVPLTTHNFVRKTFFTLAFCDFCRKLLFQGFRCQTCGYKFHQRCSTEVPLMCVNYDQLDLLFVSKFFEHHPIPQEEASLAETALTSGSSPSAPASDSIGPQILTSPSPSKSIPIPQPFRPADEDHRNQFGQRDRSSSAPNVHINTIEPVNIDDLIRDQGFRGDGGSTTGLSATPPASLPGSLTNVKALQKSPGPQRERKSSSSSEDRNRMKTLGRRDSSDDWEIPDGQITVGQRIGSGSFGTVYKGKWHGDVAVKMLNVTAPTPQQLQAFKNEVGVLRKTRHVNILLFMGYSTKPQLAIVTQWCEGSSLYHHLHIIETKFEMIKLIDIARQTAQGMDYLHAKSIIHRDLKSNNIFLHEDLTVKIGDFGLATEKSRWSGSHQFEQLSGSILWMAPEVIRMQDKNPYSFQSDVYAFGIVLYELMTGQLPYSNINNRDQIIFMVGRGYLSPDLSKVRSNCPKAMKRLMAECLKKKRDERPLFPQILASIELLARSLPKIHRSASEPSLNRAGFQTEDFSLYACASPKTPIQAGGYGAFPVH

For the test, the target named is B-Raf (V600E)-kinase (Homo sapiens (Human), UniProt P15056, V600E). The test is described as follows: Kinase test B-RAF (V600E). The following applies: B-RAF (V600E) kinase test, 250 μM ATP. It is filed as biochemical. The protocol:
Kinase Test B-RAF (V600E)
In a dilution series 10 μL of test substance solution are placed in a multiwell plate. The dilution series is selected so that generally a range of concentrations of 2 μM to 0.119 nM or 0.017 nM is covered. If necessary the initial concentration of 2 μM is changed to 50 μM, 10 μM or 0.4 μM or 0.2857 μM and further dilution is carried out accordingly. The final concentration of DMSO is 5%. 10 μL of the B-Raf (V600E)-kinase solution are pipetted in (containing 0.5 ng B-Raf (V600E)-kinase in 20 mM Tris-HCl pH 7.5, 0.1 mM EDTA, 0.1 mM EGTA, 0.286 mM sodium orthovanadate, 10% glycerol, 1 mg/mL bovine serum albumin, 1 mM dithiothreitol) and the mixture is incubated for 24 h at RT under with shaking. The kinase reaction is started by the addition of 20 μL ATP solution [final concentration: 250 μM ATP, 30 mM Tris-HCl pH 7.5, 0.02% Brij, 0.2 mM sodium orthovanadate, 10 mM magnesium acetate, 0.1 mM EGTA, phosphatase cocktail (Sigma, # P2850, dilution recommended by the manufacturer), 0.1 mM EGTA] and 10 μL MEK1 solution [containing 50 ng biotinylated MEK1 (prepared from purified MEK1 according to standard procedure, e.g. with EZ-Link Sulpho-NHS-LC-Biotin reagent, Pierce, #21335) and carried out for 60 min at RT with constant shaking. The reaction is stopped by the addition of 12 μL of a 100 mM EDTA solution and incubation is continued for a further 5 min. 55 μL of the reaction solution are transferred into a streptavidin-coated plate (e.g. Streptawell HighBond, Roche, #11989685001) and shaken gently for 1 h at RT, in order to bind biotinylated MEK1 to the plate. After elimination of the liquid the plate is washed five times with 200 μL of 1×PBS and 100 μL solution of primary antibody plus europium-labelled secondary antibody [Anti Phospho-MEK (Ser217/221), Cell Signaling, #9121 and Eu-N1 labeled goat-anti-rabbit antibody, Perkin Elmer, # AD0105], the primary antibody is diluted 1:2000 and the secondary antibody is diluted to 0.4-0.5 μg/mL in Delfia Assay Buffer (Perkin Elmer, #1244-111). After 1 h shaking at RT the solution is poured away and washed five times with 200 μL Delfia Wash Buffer (Perkin Elmer, #4010-0010/#1244-114). After the addition of 200 μL Enhancement Solution (Perkin Elmer, #4001-0010/#1244-105) the mixture is shaken for 10 min at RT and then measured in a Wallac Victor using the program “Delfia Time Resolved Fluorescence (Europium)”. IC50 values are obtained from these dosage-activity curves using a software program (GraphPadPrizm).
Usually pIC50 stands for −log10 of the IC50, conventionally taken in molar units. Low readings indicate a large IC50, high ones a small IC50. Turning to `Cc1ccc(NC(=O)c2cccc(C(F)(F)F)c2)cc1Nc1ncnc2c(N)nc(N3CC(C)NC(C)C3)nc12` (stereo not drawn) [II-15], the pIC50 is 7.40. To `Cc1ccc(NC(=O)c2cccc(C(F)(F)F)c2)cc1Nc1ncnc2c(N)nc(N3CCCN(c4ncccn4)CC3)nc12` [II-16] belongs 7.35.

`Cc1ccc(NC(=O)c2cccc(C(F)(F)F)c2)cc1Nc1ncnc2c(N)nc(N3CCN(C(C)C)CC3)nc12` [II-17] had a pIC50 of 7.89. Under `Cc1ccc(NC(=O)c2cccc(C(F)(F)F)c2)cc1Nc1ncnc2c(N)nc(N3CC4CC3CN4C)nc12` (stereo not drawn) [II-18] stands 8.05; under `Cc1ccc(NC(=O)c2cccc(C(F)(F)F)c2)cc1Nc1ncnc2c(N)nc(N3CCNCC3)nc12` [II-19], 8.05. Take `COc1ccc(NC(=O)c2ccc(C)c(Nc3ncnc4cnc(N5CCN(C)CC5)nc34)c2)cc1C(F)(F)F` [III-1]: the pIC50 was 8.70.

As to `COc1ccc(NC(=O)c2ccc(C)c(Nc3ncnc4cnc(N5CCOCC5)nc34)c2)cc1C(F)(F)F` [III-2], the pIC50 is above 9.00. To `Cc1ccc(C(=O)NCc2cccc(C(C)(C)C)c2)cc1Nc1ncnc2cnc(N(C)CCN(C)C)nc12` [III-3] belongs 6.93. Under `COCCN(C)c1ncc2ncnc(Nc3cc(C(=O)Nc4ccc(OC)c(C(F)(F)F)c4)ccc3Cl)c2n1` [III-4] stands 8.70. Molecule `COc1ccc(NC(=O)c2ccc(Cl)c(Nc3ncnc4cnc(N(C)CCN(C)C)nc34)c2)cc1C(F)(F)F` [III-5] had a pIC50 of 8.70. Under `COc1ccc(NC(=O)c2ccc(Cl)c(Nc3ncnc4cnc(N5CCCCCC5)nc34)c2)cc1C(F)(F)F` [III-6] stands 8.15; under `COc1ccc(NC(=O)c2ccc(Cl)c(Nc3ncnc4cnc(N5CCCN(C)CC5)nc34)c2)cc1C(F)(F)F` [III-7], 9.00. Turning to `COc1ccc(NC(=O)c2ccc(Cl)c(Nc3ncnc4cnc(N(C)CCN5CCCC5)nc34)c2)cc1C(F)(F)F` [III-8], the pIC50 was 8.52.

As for `COc1ccc(NC(=O)c2ccc(Cl)c(Nc3ncnc4cnc(N5CCN(C)CC5)nc34)c2)cc1C(F)(F)F` [III-9], the pIC50 is 8.15. With `COc1ccc(NC(=O)c2ccc(Cl)c(Nc3ncnc4cnc(N5CCCCC5)nc34)c2)cc1C(F)(F)F` [III-10], the pIC50 was 8.22. Under `COc1ccc(NC(=O)c2ccc(Cl)c(Nc3ncnc4cnc(NCCCN5CCOCC5)nc34)c2)cc1C(F)(F)F` [III-11] stands 8.40; under `COc1ccc(NC(=O)c2ccc(Cl)c(Nc3ncnc4cnc(N5CCOCC5)nc34)c2)cc1C(F)(F)F` [III-12], 8.70. Regarding `COc1ccc(NC(=O)c2ccc(Cl)c(Nc3ncnc4cnc(N5CCCC5)nc34)c2)cc1C(F)(F)F` [III-13], the negative-log IC50 (pIC50) was 8.05.

For the molecule `COc1ccc(NC(=O)c2ccc(Cl)c(Nc3ncnc4cnc(NCCN(C)C)nc34)c2)cc1C(F)(F)F` [III-14], the pIC50 is 8.52. `COc1ccc(NC(=O)c2ccc(Cl)c(Nc3ncnc4cnc(NCCN5CCOCC5)nc34)c2)cc1C(F)(F)F` [III-15] had a pIC50 of 8.30. Under `COc1ccc(NC(=O)c2ccc(Cl)c(Nc3ncnc4cnc(N(C)C)nc34)c2)cc1C(F)(F)F` [III-16] stands 8.70; under `COCCN(C)c1ncc2ncnc(Nc3cc(C(=O)Nc4ccc(OC)c(C(F)(F)F)c4)ccc3OC)c2n1` [III-17], 8.52; under `COc1ccc(C(=O)Nc2ccc(OC)c(C(F)(F)F)c2)cc1Nc1ncnc2cnc(N(C)CCN(C)C)nc12` [III-18], 8.40.

Molecule `COc1ccc(C(=O)Nc2ccc(OC)c(C(F)(F)F)c2)cc1Nc1ncnc2cnc(N3CCCCCC3)nc12` [III-19] had a pIC50 of 9.00. To `COc1ccc(C(=O)Nc2ccc(OC)c(C(F)(F)F)c2)cc1Nc1ncnc2cnc(N3CCCN(C)CC3)nc12` [III-20] belongs 8.52.

Molecule `COc1ccc(C(=O)Nc2ccc(OC)c(C(F)(F)F)c2)cc1Nc1ncnc2cnc(N(C)CCN3CCCC3)nc12` [III-21] gave a pIC50 of 8.52. To `COc1ccc(C(=O)Nc2ccc(OC)c(C(F)(F)F)c2)cc1Nc1ncnc2cnc(N3CCN(C)CC3)nc12` [III-22] belongs 8.22; to `COc1ccc(C(=O)Nc2ccc(OC)c(C(F)(F)F)c2)cc1Nc1ncnc2cnc(N3CCCCC3)nc12` [III-23], 8.15; to `COc1ccc(C(=O)Nc2ccc(OC)c(C(F)(F)F)c2)cc1Nc1ncnc2cnc(NCCCN3CCOCC3)nc12` [III-24], 8.30. In turn, `COc1ccc(C(=O)Nc2ccc(OC)c(C(F)(F)F)c2)cc1Nc1ncnc2cnc(N3CCOCC3)nc12` [III-25] gave a pIC50 of 8.70.

Molecule `COc1ccc(C(=O)Nc2ccc(OC)c(C(F)(F)F)c2)cc1Nc1ncnc2cnc(N3CCCC3)nc12` [III-26] gave a pIC50 of 7.62. As for `COc1ccc(C(=O)Nc2ccc(OC)c(C(F)(F)F)c2)cc1Nc1ncnc2cnc(NCCN(C)C)nc12` [III-27], the pIC50 is 8.10. To `COc1ccc(C(=O)Nc2ccc(OC)c(C(F)(F)F)c2)cc1Nc1ncnc2cnc(NCCN3CCOCC3)nc12` [III-28] belongs 8.52; to `COc1ccc(C(=O)Nc2ccc(OC)c(C(F)(F)F)c2)cc1Nc1ncnc2cnc(N(C)C)nc12` [III-29], 8.70; to `COCCN(C)c1ncc2ncnc(Nc3cc(C(=O)Nc4ccc(OC)c(C(F)(F)F)c4)ccc3F)c2n1` [III-30], 8.70.

Regarding `COc1ccc(NC(=O)c2ccc(F)c(Nc3ncnc4cnc(N(C)CCN(C)C)nc34)c2)cc1C(F)(F)F` [III-31], the pIC50 is above 9.00. `COc1ccc(NC(=O)c2ccc(F)c(Nc3ncnc4cnc(N5CCCCCC5)nc34)c2)cc1C(F)(F)F` [III-32] gave a pIC50 of 9.00. To `COc1ccc(NC(=O)c2ccc(F)c(Nc3ncnc4cnc(N(C)CCN5CCCC5)nc34)c2)cc1C(F)(F)F` [III-33] belongs 9.00; to `COc1ccc(NC(=O)c2ccc(F)c(Nc3ncnc4cnc(N5CCN(C)CC5)nc34)c2)cc1C(F)(F)F` [III-34], 8.70; to `COc1ccc(NC(=O)c2ccc(F)c(Nc3ncnc4cnc(N5CCCCC5)nc34)c2)cc1C(F)(F)F` [III-35], 8.30. As to `COc1ccc(NC(=O)c2ccc(F)c(Nc3ncnc4cnc(NCCCN5CCOCC5)nc34)c2)cc1C(F)(F)F` [III-36], the pIC50 is 8.52. The molecule `COc1ccc(NC(=O)c2ccc(F)c(Nc3ncnc4cnc(N5CCOCC5)nc34)c2)cc1C(F)(F)F` [III-37] showed a pIC50 of 8.40. In turn, `COc1ccc(NC(=O)c2ccc(F)c(Nc3ncnc4cnc(N5CCCC5)nc34)c2)cc1C(F)(F)F` [III-38] gave a pIC50 of 8.30.

Regarding `COc1ccc(NC(=O)c2ccc(F)c(Nc3ncnc4cnc(NCCN(C)C)nc34)c2)cc1C(F)(F)F` [III-39], the pIC50 was 8.70. Under `COc1ccc(NC(=O)c2ccc(F)c(Nc3ncnc4cnc(NCCN5CCOCC5)nc34)c2)cc1C(F)(F)F` [III-40] stands 8.70; under `COc1ccc(NC(=O)c2ccc(F)c(Nc3ncnc4cnc(N(C)C)nc34)c2)cc1C(F)(F)F` [III-41], 9.00; under `COCCN(C)c1ncc2ncnc(Nc3cc(C(=O)Nc4ccc(OC)c(C(F)(F)F)c4)ccc3C(F)(F)F)c2n1` [III-42], 7.19. To `COc1ccc(NC(=O)c2ccc(C(F)(F)F)c(Nc3ncnc4cnc(N(C)CCN(C)C)nc34)c2)cc1C(F)(F)F` [III-43] belongs 6.01; to `COc1ccc(NC(=O)c2ccc(C(F)(F)F)c(Nc3ncnc4cnc(N5CCCCCC5)nc34)c2)cc1C(F)(F)F` [III-44], below 5.70; to `COc1ccc(NC(=O)c2ccc(C(F)(F)F)c(Nc3ncnc4cnc(N5CCCN(C)CC5)nc34)c2)cc1C(F)(F)F` [III-45], 6.55. For `COc1ccc(NC(=O)c2ccc(C(F)(F)F)c(Nc3ncnc4cnc(N(C)CCN5CCCC5)nc34)c2)cc1C(F)(F)F` [III-46], the pIC50 is 6.35. Under `COc1ccc(NC(=O)c2ccc(C(F)(F)F)c(Nc3ncnc4cnc(N5CCN(C)CC5)nc34)c2)cc1C(F)(F)F` [III-47] stands 7.02; under `COc1ccc(NC(=O)c2ccc(C(F)(F)F)c(Nc3ncnc4cnc(N5CCCCC5)nc34)c2)cc1C(F)(F)F` [III-48], below 6.00; under `COc1ccc(NC(=O)c2ccc(C(F)(F)F)c(Nc3ncnc4cnc(NCCCN5CCOCC5)nc34)c2)cc1C(F)(F)F` [III-49], 6.23.

The values are drawn from patent US8653087B2, “Pyrido [5, 4-D] pyrimidines as cell proliferation inhibitors” (Boehringer Ingelheim International GmbH, priority 2008, dated 2014).
